# According to US9326973B2, “Hepatitis C virus inhibitors” (priority 2012, dated 2016):
# Tested on: HCV replicon, genotype-1a variant with glutamine 30 changed to glutamate in the NS5A protein
# Assay: microbe, parasite or virus in culture
# Format: cell-based, HCV genotype 1a
# Conditions: HCV replicon genotype 1a Q30E (Q→E) variant; test compound titrated with an NS5A-targeting compound (BMS-790052 fixed at 200 nM); ranking of synergist activity
# Summary of the method: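 Synergy was assessed by combining several fixed amounts of an NS5A-targeting compound with a titration of the second compound of interest.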
row,SMILES,Fold-Synergistic 1a (Q30E)
1,Cc1nnc(C(=O)N[C@H](c2nc(-c3ccc(-c4ccc(-c5c[nH]c([C@@H](NC(=O)c6nnc(C)o6)C(C)(C)C)n5)cc4)cc3)c[nH]2)C(C)(C)C)o1 [Compound L-89],>10 fold
2,CC(C)(C)C(=O)N1C[C@H](F)C[C@H]1C(=O)N[C@H](c1nc(-c2ccc(-c3ccc(-c4c[nH]c([C@@H](NC(=O)[C@@H]5C[C@@H](F)CN5C(=O)C(C)(C)C)C(C)(C)C)n4)cc3)cc2)c[nH]1)C(C)(C)C [Compound W-105],>100 fold
3,CC(C)[C@H](NC(=O)[C@@H]1C[C@@H](O)CN1C(=O)OC(C)(C)C)c1nc(-c2ccc(-c3ccc(-c4c[nH]c([C@@H](NC(=O)[C@@H]5C[C@@H](O)CN5C(=O)OC(C)(C)C)C(C)C)n4)cc3)cc2)c[nH]1 [Compound W-97],>100 fold
4,CCCCC(=O)N1CCC[C@H]1c1ncc(-c2ccc(-c3ccc(-c4cnc([C@@H]5CCCN5C(=O)CCCC)[nH]4)cc3)cc2)[nH]1 [Compound S-180],<10 fold
5,Cn1cc(C(=O)N2CCC[C@H]2c2ncc(-c3ccc(-c4ccc(-c5cnc([C@@H]6CCCN6C(=O)c6cn(C)c7ccccc67)[nH]5)cc4)cc3)[nH]2)c2ccccc21 [Compound S-142],>10 fold
6,CC(C)N(C(=O)C(=O)N[C@H](c1nc(-c2ccc(-c3ccc(-c4c[nH]c([C@@H](NC(=O)C(=O)N(C(C)C)C5CC5)C5(C)CC5)n4)cc3)cc2)c[nH]1)C1(C)CC1)C1CC1 [Compound W-58],>100 fold
7,CO[C@@H](C(=O)N[C@H](c1nc(-c2ccc(-c3ccc(-c4c[nH]c([C@@H](NC(=O)[C@H](OC)C(C)C)C(C)(C)C)n4)cc3)cc2)c[nH]1)C(C)(C)C)C(C)C [Compound L-86],>100 fold
8,O=C(c1cccnc1)N1CCC[C@H]1c1ncc(-c2ccc(-c3ccc(-c4cnc([C@@H]5CCCN5C(=O)c5cccnc5)[nH]4)cc3)cc2)[nH]1 [Compound S-185],<10 fold
9,CCN(CCC#N)C(=O)C(C)(C)C(=O)N[C@H](c1nc(-c2ccc(-c3ccc(-c4c[nH]c([C@@H](NC(=O)C(C)(C)C(=O)N(CC)CCC#N)C(C)(C)C)n4)cc3)cc2)c[nH]1)C(C)(C)C [Compound W-158],>100 fold
10,CC(C)[C@H](NC(=O)C(C)(C)OCC(F)F)c1nc(-c2ccc(-c3ccc(-c4c[nH]c([C@@H](NC(=O)C(C)(C)OCC(F)F)C(C)C)n4)c(F)c3)cc2)c[nH]1 [Compound N-91],>100 fold
11,CC(C)(C)[C@H](NC(=O)Cc1ccccc1OC(F)(F)F)c1nc(-c2ccc(-c3ccc(-c4c[nH]c([C@@H](NC(=O)Cc5ccccc5OC(F)(F)F)C(C)(C)C)n4)cc3)cc2)c[nH]1 [Compound Y-73],>100 fold
12,CC(C)[C@@H](O)C(=O)N[C@H](c1nc(-c2ccc(-c3ccc(-c4c[nH]c([C@@H](NC(=O)[C@H](O)C(C)C)C(C)(C)C)n4)cc3)cc2)c[nH]1)C(C)(C)C [Compound L-82],>100 fold
13,O=C(CC1CC1)N1CCC[C@H]1c1ncc(-c2ccc(-c3ccc(-c4cnc([C@@H]5CCCN5C(=O)CC5CC5)[nH]4)cc3)cc2)[nH]1 [Compound S-110],<10 fold
14,CC(C)(C)OC(=O)N1CC2(CC(C(=O)N[C@H](c3nc(-c4ccc(-c5ccc(-c6c[nH]c([C@@H](NC(=O)C7CC8(C7)CN(C(=O)OC(C)(C)C)C8)C(C)(C)C)n6)cc5)cc4)c[nH]3)C(C)(C)C)C2)C1 (stereo partly drawn) [Compound L-57],>100 fold
15,CC1(C(=O)N[C@H](c2nc(-c3ccc(-c4ccc(-c5c[nH]c([C@@H](NC(=O)C6(C)CCOCC6)C(C)(C)C)n5)cc4)cc3)c[nH]2)C(C)(C)C)CCOCC1 [Compound W-130],>100 fold
16,CC(C)(C)OC(=O)N[C@@H]1CCCC(C(=O)N[C@H](c2nc(-c3ccc(-c4ccc(-c5c[nH]c([C@@H](NC(=O)C6CCC[C@@H](NC(=O)OC(C)(C)C)C6)C(C)(C)C)n5)cc4)cc3)c[nH]2)C(C)(C)C)C1 (stereo partly shown) [Compound S-266],>100 fold
17,CC(C)(C)OC(=O)C[C@H](C(=O)N[C@H](c1nc(-c2ccc(-c3ccc(-c4c[nH]c([C@@H](NC(=O)[C@@H](CC(=O)OC(C)(C)C)C5CCCC5)C(C)(C)C)n4)cc3)cc2)c[nH]1)C(C)(C)C)C1CCCC1 [Compound S-272],>100 fold
18,COC(=O)N[C@@H](C(=O)NC1(c2nc(-c3ccc(-c4ccc(-c5c[nH]c(C6(NC(=O)[C@H](NC(=O)OC)C(C)C)CC=CC6)n5)cc4)cc3)c[nH]2)CC=CC1)C(C)C [Compound N-14],<10 fold
19,CC(C)(C)[C@H](NC(=O)[C@H]1COC(=O)N1)c1nc(-c2ccc(-c3ccc(-c4c[nH]c([C@@H](NC(=O)[C@H]5COC(=O)N5)C(C)(C)C)n4)cc3)cc2)c[nH]1 [Compound L-9],>10 fold
20,CC(C)(C)[C@H](NC(=O)[C@@H]1COCCN1CC(F)(F)F)c1nc(-c2ccc(-c3ccc(-c4c[nH]c([C@@H](NC(=O)[C@@H]5COCCN5CC(F)(F)F)C(C)(C)C)n4)cc3)cc2)c[nH]1 [Compound L-68],>100 fold

row,SMILES,Fold-Synergistic 1a (Q30E)
1,COCC1(C(=O)N[C@H](c2nc(-c3ccc(-c4ccc(-c5c[nH]c([C@@H](NC(=O)C6(COC)CCCCO6)C(C)(C)C)n5)cc4)cc3)c[nH]2)C(C)(C)C)CCCCO1 (stereo partly shown) [Compound P-183],>100 fold
2,CC(=O)N1CCC[C@H]1c1ncc(-c2ccc(-c3ccc(-c4cnc([C@@H]5CCCN5C(C)=O)[nH]4)cc3)cc2)[nH]1 [Compound S-113],<10 fold
3,COC(=O)c1ccccc1C(=O)N1CCC[C@H]1c1ncc(-c2ccc(-c3ccc(-c4cnc([C@@H]5CCCN5C(=O)c5ccccc5C(=O)OC)[nH]4)cc3)cc2)[nH]1 [Compound S-115],<10 fold
4,CC(C)[C@H](NC(=O)C(C)(C)C)c1nc(-c2ccc(-c3ccc(-c4c[nH]c([C@@H](NC(=O)C(C)(C)C)C(C)C)n4)c(F)c3)cc2)c[nH]1 [Compound N-89],>100 fold
5,CC(C)(C)[C@H](NC(=O)C1(C(=O)N2CCC(F)(F)CC2)CC1)c1nc(-c2ccc(-c3ccc(-c4c[nH]c([C@@H](NC(=O)C5(C(=O)N6CCC(F)(F)CC6)CC5)C(C)(C)C)n4)cc3)cc2)c[nH]1 [Compound P-148],>100 fold
6,CC(C)(C)C(=O)N[C@H](c1nc(-c2ccc(-c3ccc(-c4c[nH]c([C@@H](NC(=O)C(C)(C)C)C(C)(C)C)n4)c(F)c3)cc2)c[nH]1)C(C)(C)C [Compound N-93],>100 fold
7,CC(C)(C)[C@H](NC(=O)CC1CC(F)(F)C1)c1nc(-c2ccc(-c3ccc(-c4c[nH]c([C@@H](NC(=O)CC5CC(F)(F)C5)C(C)(C)C)n4)cc3)cc2)c[nH]1 [Compound N-120],>100 fold
8,C=C[C@@H]1C[C@]1(NC(=O)OC(C)(C)C)C(=O)N[C@H](c1nc(-c2ccc(-c3ccc(-c4c[nH]c([C@@H](NC(=O)[C@@]5(NC(=O)OC(C)(C)C)C[C@H]5C=C)C(C)(C)C)n4)cc3)cc2)c[nH]1)C(C)(C)C [Compound W-7],>100 fold
9,CC1([C@H](NC(=O)C2(C3(O)CCC(F)(F)CC3)CC2)c2nc(-c3ccc(-c4ccc(-c5c[nH]c([C@@H](NC(=O)C6(C7(O)CCC(F)(F)CC7)CC6)C6(C)CC6)n5)cc4)cc3)c[nH]2)CC1 [Compound P-147],>100 fold
10,CC(C)(C(=O)N[C@H](c1nc(-c2ccc(-c3ccc(-c4c[nH]c([C@@H](NC(=O)C(C)(C)C(=O)N5CCC(O)CC5)C(C)(C)C)n4)cc3)cc2)c[nH]1)C(C)(C)C)C(=O)N1CCC(O)CC1 [Compound W-136],>10 fold
11,Cc1nn(-c2ccccc2)nc1C(=O)N1CCC[C@H]1c1ncc(-c2ccc(-c3ccc(-c4cnc([C@@H]5CCCN5C(=O)c5nn(-c6ccccc6)nc5C)[nH]4)cc3)cc2)[nH]1 [Compound S-129],>100 fold
12,CO[C@H]1C[C@@H](C(=O)N[C@H](c2nc(-c3ccc(-c4ccc(-c5c[nH]c([C@@H](NC(=O)[C@@H]6C[C@H](OC)CN6C(=O)OC(C)(C)C)C(C)(C)C)n5)cc4)cc3)c[nH]2)C(C)(C)C)N(C(=O)OC(C)(C)C)C1 [Compound W-115],>100 fold
13,CC1([C@H](NC(=O)[C@@]2(C)CCC(F)(F)CO2)c2nc(-c3ccc(-c4ccc(-c5c[nH]c([C@@H](NC(=O)[C@@]6(C)CCC(F)(F)CO6)C6(C)CC6)n5)cc4)cc3)c[nH]2)CC1 [Compound Y-81],>100 fold
14,COC(=O)N[C@H](C(=O)N[C@@H](C)c1nc(-c2ccc(-c3ccc(-c4c[nH]c([C@H](C)NC(=O)[C@@H](NC(=O)OC)C(C)C)n4)cc3)cc2)c[nH]1)C(C)C [Compound N-38],<10 fold
15,"CC(C)C(N[S+]([O-])C(C)(C)C)c1ncc(-c2ccc(-c3ccc(-c4cnc([C@@H](N[S+]([O-])C(C)(C)C)C(C)C)[nH]4)cc3)cc2)[nH]1 (single isomer, unassigned) [Compound Y-61]",<10 fold
16,CC(C)(C)[C@H](NC(=O)[C@@]1(C)CC(F)(F)CCO1)c1nc(-c2ccc(-c3ccc(-c4c[nH]c([C@@H](NC(=O)[C@@]5(C)CC(F)(F)CCO5)C(C)(C)C)n4)cc3)cc2)c[nH]1 [Compound Y-75],>100 fold
17,COC(C)(C)[C@H](NC(=O)C(C)(C)C)c1nc(-c2ccc(-c3ccc(-c4c[nH]c([C@@H](NC(=O)C(C)(C)C)C(C)(C)OC)n4)cc3)cc2)c[nH]1 [Compound P-9],>100 fold
18,CC(C)[C@H](NC(=O)C(C)(C)C)c1nc(-c2ccc(-c3ccc(-c4c[nH]c([C@@H](NC(=O)C(C)(C)C)C(C)C)n4)cn3)cc2)c[nH]1 [Compound N-103],>100 fold
19,COC(=O)N[C@H](C(=O)NC(C)(C)c1nc(-c2ccc(-c3ccc(-c4c[nH]c(C(C)(C)NC(=O)[C@@H](NC(=O)OC)C(C)C)n4)cc3)cc2)c[nH]1)C(C)C [Compound N-25],<10 fold
20,C[C@H]1C[C@@H](C(=O)N[C@H](c2nc(-c3ccc(-c4ccc(-c5c[nH]c([C@@H](NC(=O)[C@@H]6C[C@H](C)CN6C(=O)OC(C)(C)C)C(C)(C)C)n5)cc4)cc3)c[nH]2)C(C)(C)C)N(C(=O)OC(C)(C)C)C1 [Compound W-68],>100 fold
